Assay type in all cases: biochemical
The target of assay [1] is T1, EphB4 (Homo sapiens, UniProt P54760).
T1 sequence (P54760 16-987): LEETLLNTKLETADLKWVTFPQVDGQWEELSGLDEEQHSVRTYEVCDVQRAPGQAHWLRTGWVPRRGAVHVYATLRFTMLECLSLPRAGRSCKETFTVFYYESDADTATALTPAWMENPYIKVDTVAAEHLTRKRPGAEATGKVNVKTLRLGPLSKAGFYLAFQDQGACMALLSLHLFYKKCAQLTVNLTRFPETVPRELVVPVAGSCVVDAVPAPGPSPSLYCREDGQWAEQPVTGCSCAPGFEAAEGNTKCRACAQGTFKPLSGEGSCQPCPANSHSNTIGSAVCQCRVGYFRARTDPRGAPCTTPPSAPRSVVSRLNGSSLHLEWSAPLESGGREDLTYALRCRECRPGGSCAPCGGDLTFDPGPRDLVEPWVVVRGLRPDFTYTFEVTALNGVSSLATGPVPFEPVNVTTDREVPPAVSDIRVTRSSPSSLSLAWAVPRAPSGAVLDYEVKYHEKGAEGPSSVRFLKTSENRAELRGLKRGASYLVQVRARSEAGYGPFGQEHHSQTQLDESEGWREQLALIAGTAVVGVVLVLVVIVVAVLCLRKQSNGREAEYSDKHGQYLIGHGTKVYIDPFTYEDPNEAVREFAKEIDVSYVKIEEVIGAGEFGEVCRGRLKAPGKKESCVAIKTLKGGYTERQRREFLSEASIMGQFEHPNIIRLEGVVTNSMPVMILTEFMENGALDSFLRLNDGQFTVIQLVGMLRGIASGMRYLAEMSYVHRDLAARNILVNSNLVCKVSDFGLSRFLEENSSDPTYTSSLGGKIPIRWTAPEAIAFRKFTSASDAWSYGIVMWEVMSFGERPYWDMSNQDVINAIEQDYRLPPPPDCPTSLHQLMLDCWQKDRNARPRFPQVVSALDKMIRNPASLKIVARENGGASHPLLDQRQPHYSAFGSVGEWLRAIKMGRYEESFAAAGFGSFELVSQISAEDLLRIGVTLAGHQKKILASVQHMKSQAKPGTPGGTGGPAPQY
Kind of assay: Eph receptor kinase activity assay (radiometric), EphB4. As to conditions: for remaining activity at 0.01 µM: 10 nM compound, read-out: EphB4 % act 10 nM; for remaining activity at 0.03 µM: 30 nM compound, read-out: EphB4 % act 30 nM; for remaining activity at 0.1 µM: 100 nM compound, read-out: EphB4 % act 100 nM; for IC50: Table 2, Example 12.

In assay [2] the target is T2, EphB3 (Homo sapiens, UniProt P54753).
T2 sequence (P54753 34-998): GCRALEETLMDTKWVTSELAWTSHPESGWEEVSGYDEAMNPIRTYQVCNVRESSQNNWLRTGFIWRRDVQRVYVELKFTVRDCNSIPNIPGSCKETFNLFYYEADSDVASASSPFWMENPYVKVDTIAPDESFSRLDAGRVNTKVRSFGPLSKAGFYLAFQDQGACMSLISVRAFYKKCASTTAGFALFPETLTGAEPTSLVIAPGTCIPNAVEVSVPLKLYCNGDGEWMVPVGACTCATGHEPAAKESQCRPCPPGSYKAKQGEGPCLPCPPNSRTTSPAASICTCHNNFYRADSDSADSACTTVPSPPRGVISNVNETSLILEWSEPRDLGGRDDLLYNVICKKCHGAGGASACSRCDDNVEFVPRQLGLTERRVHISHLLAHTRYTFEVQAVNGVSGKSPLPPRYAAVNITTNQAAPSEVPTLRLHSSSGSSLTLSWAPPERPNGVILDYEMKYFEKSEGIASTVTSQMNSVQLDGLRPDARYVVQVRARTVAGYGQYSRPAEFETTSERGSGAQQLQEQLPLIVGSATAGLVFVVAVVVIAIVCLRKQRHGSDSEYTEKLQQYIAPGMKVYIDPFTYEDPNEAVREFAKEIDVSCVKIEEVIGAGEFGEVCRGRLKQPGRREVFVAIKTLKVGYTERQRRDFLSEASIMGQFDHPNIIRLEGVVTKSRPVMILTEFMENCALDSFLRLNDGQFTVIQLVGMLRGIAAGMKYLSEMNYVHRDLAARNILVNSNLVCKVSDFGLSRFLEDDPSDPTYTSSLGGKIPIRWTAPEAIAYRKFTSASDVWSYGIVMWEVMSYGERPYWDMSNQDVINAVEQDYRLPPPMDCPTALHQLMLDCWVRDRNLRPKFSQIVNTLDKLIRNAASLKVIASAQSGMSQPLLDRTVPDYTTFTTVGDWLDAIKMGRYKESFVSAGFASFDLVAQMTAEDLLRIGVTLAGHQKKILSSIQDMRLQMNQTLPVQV
Kind of assay: EphB3 radiometric kinase activity assay (33P ATP filter binding). The note with it: for remaining activity at 0.01 µM: 10 nM compound, read-out: EphB3 % act 10 nM; for remaining activity at 0.03 µM: 30 nM compound, read-out: EphB3 % act 30 nM; for remaining activity at 0.1 µM: 100 nM compound, read-out: EphB3 % act 100 nM. The procedure: EphB3 radiometric kinase activity assay. To study the EphB3 kinase activity, a radioactive filter binding assay using 33P ATP was performed as described at the […] International Centre for Kinase profiling. […] The mix was harvested onto P81 filter plates and counts were read on a Topcount NXT.

Assay [3] addresses EphA4 (Homo sapiens, UniProt P54764). The assay is described as follows: Eph receptor kinase activity assay (radiometric), EphA4. As to conditions: for remaining activity at 0.01 µM: 10 nM compound, read-out: EphA4 % act 10 nM; for remaining activity at 0.03 µM: 30 nM compound, read-out: EphA4 % act 30 nM; for remaining activity at 0.1 µM: 100 nM compound, read-out: EphA4 % act 100 nM; for IC50: Table 2, Example 12.

For assay [4], the target named is EphA2 (Homo sapiens, UniProt P29317). Kind of assay: Eph receptor kinase activity assay (radiometric), EphA2. As to conditions: for remaining activity at 0.01 µM: 10 nM compound, read-out: EphA2 % act 10 nM; for remaining activity at 0.03 µM: 30 nM compound, read-out: EphA2 % act 30 nM; for remaining activity at 0.1 µM: 100 nM compound, read-out: EphA2 % act 100 nM; for IC50: Table 2, Example 12.

[5] abbreviates: Table 2, Example 12, read-out: EphB3 (nM) IC50.
[6] abbreviates: Example 14, read-out: IC50 (μM), EphB3 receptor kinase inhibitory activity.

Read-outs that look alike come from different tables or passages of the source.

Chain of EphA4 (P54764 20-986): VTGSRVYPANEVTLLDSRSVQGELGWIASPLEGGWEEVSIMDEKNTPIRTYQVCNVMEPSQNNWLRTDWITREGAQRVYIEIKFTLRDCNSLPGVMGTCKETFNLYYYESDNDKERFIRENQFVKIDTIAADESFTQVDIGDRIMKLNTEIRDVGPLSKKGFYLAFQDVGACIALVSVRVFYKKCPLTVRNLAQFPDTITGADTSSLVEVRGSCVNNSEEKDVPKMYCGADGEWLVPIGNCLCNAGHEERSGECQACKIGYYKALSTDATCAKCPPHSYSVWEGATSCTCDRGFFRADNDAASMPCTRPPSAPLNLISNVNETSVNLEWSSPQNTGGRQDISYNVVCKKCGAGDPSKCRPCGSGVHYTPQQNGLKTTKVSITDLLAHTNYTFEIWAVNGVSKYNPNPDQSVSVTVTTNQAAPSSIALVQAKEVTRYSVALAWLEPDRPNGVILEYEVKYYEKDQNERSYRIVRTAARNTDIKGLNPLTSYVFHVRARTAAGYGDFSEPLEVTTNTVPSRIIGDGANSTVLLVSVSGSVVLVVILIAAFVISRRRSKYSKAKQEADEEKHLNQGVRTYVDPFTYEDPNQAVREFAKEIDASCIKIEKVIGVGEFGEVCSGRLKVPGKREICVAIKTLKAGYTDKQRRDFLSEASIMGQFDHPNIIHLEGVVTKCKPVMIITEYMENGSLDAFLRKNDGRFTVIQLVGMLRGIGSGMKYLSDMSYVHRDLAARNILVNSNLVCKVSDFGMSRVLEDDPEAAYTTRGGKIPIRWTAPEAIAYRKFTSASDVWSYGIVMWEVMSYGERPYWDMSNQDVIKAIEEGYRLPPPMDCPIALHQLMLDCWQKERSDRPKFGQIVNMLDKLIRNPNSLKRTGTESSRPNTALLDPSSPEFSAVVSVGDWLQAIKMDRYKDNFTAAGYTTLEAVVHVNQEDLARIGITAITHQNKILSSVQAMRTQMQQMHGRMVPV
Chain of EphA2 (P29317 24-976): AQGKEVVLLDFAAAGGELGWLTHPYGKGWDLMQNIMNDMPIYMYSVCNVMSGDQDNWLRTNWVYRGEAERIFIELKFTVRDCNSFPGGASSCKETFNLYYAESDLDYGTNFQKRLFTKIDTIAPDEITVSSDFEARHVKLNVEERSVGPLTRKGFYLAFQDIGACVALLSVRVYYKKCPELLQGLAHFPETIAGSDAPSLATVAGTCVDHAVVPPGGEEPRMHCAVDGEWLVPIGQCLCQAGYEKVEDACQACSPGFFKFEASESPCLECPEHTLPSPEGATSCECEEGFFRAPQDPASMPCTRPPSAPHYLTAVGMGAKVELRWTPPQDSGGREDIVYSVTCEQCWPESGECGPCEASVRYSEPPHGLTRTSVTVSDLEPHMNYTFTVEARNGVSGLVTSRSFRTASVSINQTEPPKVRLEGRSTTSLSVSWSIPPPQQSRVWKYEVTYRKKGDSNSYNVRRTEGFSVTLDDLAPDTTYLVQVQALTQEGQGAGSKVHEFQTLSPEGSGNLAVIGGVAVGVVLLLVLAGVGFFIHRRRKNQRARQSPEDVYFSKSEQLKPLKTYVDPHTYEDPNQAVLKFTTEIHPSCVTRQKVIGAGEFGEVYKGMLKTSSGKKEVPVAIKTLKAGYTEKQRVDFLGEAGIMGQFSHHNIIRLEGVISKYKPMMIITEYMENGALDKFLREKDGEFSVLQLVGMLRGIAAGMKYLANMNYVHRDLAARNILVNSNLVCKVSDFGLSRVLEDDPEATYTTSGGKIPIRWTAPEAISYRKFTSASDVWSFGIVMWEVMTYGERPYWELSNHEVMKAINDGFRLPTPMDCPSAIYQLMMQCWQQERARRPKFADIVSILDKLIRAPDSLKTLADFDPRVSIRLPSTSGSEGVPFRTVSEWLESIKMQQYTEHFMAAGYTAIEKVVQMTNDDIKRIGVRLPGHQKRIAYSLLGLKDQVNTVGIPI

In the case of `COc1ccccc1-c1ccc2ncc(C(=O)Nc3ccccc3Cl)n2c1` [compound 101, N-(2-Chlorophenyl)-6-(2-methoxyphenyl)imidazo[1,2-a]pyridine-3-carboxamide], the remaining activity at 0.01 µM in assay [1] was 98.8%; in assay [2] it was 80.9%; in assay [3], 100%; in assay [4], 67.7%. Moreover, the remaining activity at 0.03 µM is 101% in assay [1], 62% in assay [2], 80.2% in assay [3] and 65.4% in assay [4]. In addition, the remaining activity at 0.1 µM in assay [1] was 82%; in assay [2], 52.7%; in assay [3], 74.5%; in assay [4] it was 77%. The IC50 came out at 675 nM in assay [1], 90 nM in assay [2] (setting [5]), 297 nM in assay [3] and 315 nM in assay [4].
With `COc1ccc(-c2ccc3ncc(C(=O)Nc4ccccc4Cl)n3c2)cc1` [compound 102, N-(2-Chlorophenyl)-6-(4-methoxyphenyl)imidazo[1,2-a]pyridine-3-carboxamide], the remaining activity at 0.01 µM in assay [1] stood at 104%; in assay [2], 92.4%; in assay [3], 80.4%; in assay [4], 79.9%. Also, the remaining activity at 0.03 µM stood at 103% in assay [1], 92.7% in assay [2], 74.1% in assay [3] and 69.4% in assay [4]. In addition, the remaining activity at 0.1 µM in assay [1] amounted to 98%; in assay [2], 88.6%; in assay [3] it was 83.9%; in assay [4], 59.6%.
Take `COc1cccc(-c2ccc3ncc(C(=O)Nc4ccccc4Cl)n3c2)c1` [compound 103, N-(2-Chlorophenyl)-6-(3-methoxyphenyl)imidazo[1,2-a]pyridine-3-carboxamide]: the remaining activity at 0.01 µM is 94.7% in assay [1], 103% in assay [2], 102% in assay [3] and 76% in assay [4]. Also, the remaining activity at 0.03 µM turned out to be 106% in assay [1], 86.2% in assay [2], 85.1% in assay [3] and 75.3% in assay [4]. For the same compound, the remaining activity at 0.1 µM in assay [1] amounted to 132%; in assay [2], 41%; in assay [3] it was 85.6%; in assay [4] it was 70.5%.
As for `Cc1ccc(-c2ccc3ncc(C(=O)Nc4ccccc4Cl)n3c2)cc1` [compound 104, N-(2-Chlorophenyl)-6-(4-methylphenyl)imidazo[1,2-a]pyridine-3-carboxamide], the remaining activity at 0.01 µM in assay [1] came out at 93.1%; in assay [2], 110%; in assay [3], 83.8%; in assay [4], 78.1%. For the same compound, the remaining activity at 0.03 µM in assay [1] amounted to 95.5%; in assay [2] it was 60.5%; in assay [3], 62.8%; in assay [4], 86%. For the same compound, the remaining activity at 0.1 µM in assay [1] was determined as 98.4%; in assay [2], 55.9%; in assay [3], 57.8%; in assay [4], 55.9%.
For the compound `Cc1cccc(-c2ccc3ncc(C(=O)Nc4ccccc4Cl)n3c2)c1` [compound 105, N-(2-Chlorophenyl)-6-(3-methylphenyl)imidazo[1,2-a]pyridine-3-carboxamide], the remaining activity at 0.01 µM in assay [1] was 103%; in assay [2], 121%; in assay [3], 53.9%; in assay [4], 105%. The remaining activity at 0.03 µM was 109% in assay [1], 81.1% in assay [2], 40.9% in assay [3] and 88.1% in assay [4]. The remaining activity at 0.1 µM in assay [1] came out at 93.8%; in assay [2], 63.7%; in assay [3], 35.3%; in assay [4], 65.3%.
In the case of `Cc1ccccc1-c1ccc2ncc(C(=O)Nc3ccccc3Cl)n2c1` [compound 106, N-(2-Chlorophenyl)-6-(2-methylphenyl)imidazo[1,2-a]pyridine-3-carboxamide], the remaining activity at 0.01 µM in assay [1] amounted to 98.9%; in assay [2] it was 132%; in assay [3], 83.8%; in assay [4], 110%. In addition, the remaining activity at 0.03 µM came to 106% in assay [1], 93.8% in assay [2], 58.3% in assay [3] and 78.9% in assay [4]. For the same compound, the remaining activity at 0.1 µM in assay [1] came out at 110%; in assay [2], 63.5%; in assay [3], 55.1%; in assay [4] it was 72.7%. The 50% inhibitory concentration (IC50) came out at 675 nM in assay [1]; 130 nM in assay [2] (setting [6]); 182 nM in assay [2] (setting [5]); 110 nM in assay [3]; 245 nM in assay [4].
Regarding `O=C(Nc1ncccc1Cl)c1cnc2ccc(C3CCNCC3)cn12` [compound 120, N-(3-chloropyridin-2-yl)-6-(piperidin-4-yl)imidazo[1,2-a]pyridine-3-carboxamide], the half-inhibitory concentration (IC50) in assay [2] (setting [6]) was determined as 2900 nM.
Consider `O=C(Nc1ccncc1Cl)c1cnc2ccc(C3CCNCC3)cn12` [compound 121, N-(3-chloropyridin-4-yl)-6-(piperidin-4-yl)imidazo[1,2-a]pyridine-3-carboxamide], for which the concentration for half-maximal inhibition (IC50) in assay [2] (setting [6]) was 8100 nM.
Regarding `CN1CCC(c2ccc3ncc(C(=O)Nc4ccccc4Cl)n3c2)CC1` [compound 122, N-(2-chlorophenyl)-6-(1-methylpiperidin-4-yl)imidazo[1,2-a]pyridine-3-carboxamide], the IC50 in assay [2] (setting [6]) amounted to 89 nM.
In the case of `O=C(Nc1cccc(F)c1Cl)c1cnc2ccc(C3CCNCC3)cn12` [compound 123, N-(2-chloro-3-fluorophenyl)-6-(piperidin-4-yl)imidazo[1,2-a]pyridine-3-carboxamide], the half-maximal inhibitory concentration (IC50) in assay [2] (setting [6]) came out at 6000 nM.
Still for that read-out and setting: the result for `O=C(Nc1cccc2c1CCO2)c1cnc2ccc(C3CCNCC3)cn12` [compound 124, N-(2,3-dihydrobenzofuran-4-yl)-6-(piperidin-4-yl)imidazo[1,2-a]pyridine-3-carboxamide] reads 84000 nM.

As usually defined, the IC50 is the point on the concentration scale where inhibition reaches its midpoint.

For the origin of these results see patent US20240189289A1, “INHIBITORS OF EPHB3 SIGNALING” (The Brigham and Women`s Hospital, Inc., priority 2021, published 2024).
